Laboratory results from article PMC12332266 (Frontiers in Pharmacology, 2025).
Like-named read-outs stand apart in the source and are kept apart here. Each block holds one compound with its values, some of them ahead of it.

What was measured:
[1] = system: hiPSC-CM (iCell Cardiomyocytes^2); assay: Intracellular miRNA expression by RT-qPCR in hiPSC-CM pellets after 72-hour treatment; settings: for fold induction at 0.1 µM / fold induction at 0.3 µM / fold induction at 1 µM / fold induction at 3 µM: Homo sapiens
Description: (§1) Culture media change was performed every 2 days.
Total RNA was extracted from hiPSC-CM using the miRNeasy 96 Kit (Qiagen, Hilden, Germany) following the manufacturer’s recommendations. After the extraction, RNA purity was assessed by NanoDrop™ 8000 Spectrophotometer (Thermo Fisher Scientific Inc.). 5–10 ng/μL of RNA per sample were reverse transcribed and pre-amplified by using the TaqMan™ Advanced miRNA cDNA Synthesis Kit (Thermo Fisher Scientific Inc.). The synthesized cDNA was used for RT-qPCR with selected TaqMan™ assays (Thermo Fischer Scientific Inc.). RT-qPCR was carried out following the Applied Biosciences TaqMan miRNA expression assay protocol on a ViiA7 instrument (Thermo Fisher Scientific, Inc.). […] Therefore, to maximize the number of drugs and concentrations, explored in the same study, we pooled the triplicates for intracellular profiling of miRNAs. Therefore, no statistical analysis was performed on the data of miRNA profiling in the pellets of hiPSC-CM.
Following RTCA CardioECR assessment, hiPSC-CM cell pellets were collected, and total RNA was extracted and purified to investigate miRNAs upregulation by RT-qPCR. […] For the initial assessment of intracellular miRNAs in 12 different treatments, encompassing various drug classes, we used a panel of 17 miRNAs, which we selected from the publicly available data focusing mainly on in vitro models and structural cardiotoxicants (Supplementary Table S2).

[2] = ref extensive literature search, cited from earlier work
[3] = system: hiPSC-CM (iCell Cardiomyocytes^2); assay: RTCA CardioECR assessment (impedance and electrophysiology parameters)
Description: as §1
After seeding on fibronectin-coated xCELLigence ePlates (Agilent Technologies, Inc. Santa Clara, CA, USA), iCell^2 CM were monitored continuously through impedance electrodes. The following impedance parameters were measured: Cell Index (CI, measure of cell “health” and monolayer integrity), beating rate (BR) and amplitude (CI Amplitude, magnitude of contraction). Electrophysiology-like parameters (Field Potential Duration (FPD), considered as a surrogate for QT in in vivo studies, and Spike Amplitude (SA), depolarization induced by Na^+ channel opening) were measured starting from day 4–6, following the monolayer formation. […] All RTCA CardioECR data were double normalized (DMSO control and the baseline) with no further statistical group comparison for the normalized parameters. The variability of the data within the treatment groups was assessed by standard deviation.

[4] = 72 h, read-out: hsa-miR-7-5p fold change
[5] = 72 h, read-out: hsa-miR-29a-5p fold change
[6] = 72 h, read-out: hsa-miR-96-5p fold change
[7] = 72 h, read-out: hsa-miR-126-3p fold change
[8] = 72 h, read-out: hsa-miR-133b fold change
[9] = 72 h, read-out: hsa-miR-146b-5p fold change
[10] = 72 h, read-out: hsa-miR-182-5p fold change
[11] = 72 h, read-out: hsa-miR-185-3p fold change
[12] = 72 h, read-out: hsa-miR-187-3p fold change
[13] = 72 h, read-out: hsa-miR-208b-3p fold change
[14] = 72 h, read-out: hsa-miR-365a-5p fold change
[15] = 72 h, read-out: hsa-miR-[…] change

miRNAs hiPSC-CM pellet, MEC overall [1]: 0.23 µM
Beating Rate MEC ([3]; human, 72 h): 0.77 µM
Beating rate (BR) MEC ([3]; human, 72 h): 0.77 µM
RTCA, MEC (BR) ([3]; human, 72 h): 0.77 µM (BR)
Spike Amplitude (SA) MEC ([3]; human, 72 h): 0.23 µM
SMILES: C#Cc1cccc(Nc2ncnc3cc(OCCOC)c(OCCOC)cc23)c1 [Erlotinib]
miRNAs upregulated at the MEC overall (hiPSC-CM pellet) [1]: miR-1-3p, miR-21-5p, miR-34a-5p, miR-208b-3p
intracellular miRNA upregulation in hiPSC-CM, in words ([1]; human, 72 h): upregulation of three miRNAs (hsa-miR-146b-5p, hsa-miR-182-5p, hsa-miR-365a-5p)
Cmax total ([2]; Supplementary Table 1): 3.15 to 4.8 µM
Cmax total ([2]; Table 1): 3.15 to 4.80 µM

miRNAs hiPSC-CM pellet, MEC overall [1]: 0.1 µM
miRNAs upregulated at the MEC overall (hiPSC-CM pellet) [1]: miR-187-3p
Field Potential Duration MEC ([3]; human, 72 h): 3 µM
Spike Amplitude (SA) MEC ([3]; human, 72 h): 0.3 µM
SMILES: COc1cc([C@@H]2c3cc4c(cc3[C@@H](O[C@@H]3O[C@@H]5CO[C@@H](C)O[C@H]5[C@H](O)[C@H]3O)[C@H]3COC(=O)[C@H]23)OCO4)cc(OC)c1O [Etoposide]
Cmax total ([2]; Supplementary Table 1): 33.4 µM
Cmax total ([2]; Table 1): 33.40 µM

miRNAs hiPSC-CM pellet, MEC overall [1]: 0.3 µM
Cell index (CI) MEC ([3]; hiPSC-CM, 72-hour treatment, lowest concentration causing at least 20% change from baseline): 0.1 µM
RTCA, MEC (CI) ([3]; hiPSC-CM, change ≥20%, Table 2): 0.1 µM (CI, BR)
Beating Rate MEC ([3]; human, 72 h): 0.1 µM
Beating rate (BR) MEC ([3]; human, 72 h): 0.1 µM
Cell Index MEC ([3]; human, 72 h): 0.1 µM
Contractility Amplitude MEC ([3]; human, 72 h): 1 µM
Field Potential Duration MEC ([3]; human, 72 h): 0.1 µM
RTCA, MEC (BR) ([3]; human, 72 h): 0.1 µM (CI, BR)
Spike Amplitude (SA) MEC ([3]; human, 72 h): 0.1 µM
SMILES: CC(=O)[C@]1(O)Cc2c(O)c3c(c(O)c2[C@@H](O[C@H]2C[C@H](N)[C@H](O)[C@H](C)O2)C1)C(=O)c1ccccc1C3=O [Idarubicin]
miRNAs upregulated at the MEC overall (hiPSC-CM pellet) [1]: miR-96 -5p, miR-126-3p, miR-133b, miR-185-3p
fold induction at 0.1 µM [1, 4]: 4.5
fold induction at 0.3 µM [1, 4]: 5.8
fold induction at 1 µM [1, 4]: 3.5
fold induction at 3 µM [1, 4]: 0.2
fold induction at 0.1 µM [1, 5]: 1.2
fold induction at 0.3 µM [1, 5]: 4.4
fold induction at 1 µM [1, 5]: 1.2
fold induction at 3 µM [1, 5]: 3
fold induction at 0.1 µM [1, 6]: 9
fold induction at 0.3 µM [1, 6]: 21.3
fold induction at 1 µM [1, 6]: 53.4
fold induction at 3 µM [1, 6]: 0.8
fold induction at 0.1 µM [1, 7]: 1
fold induction at 0.3 µM [1, 7]: 1.3
fold induction at 1 µM [1, 7]: 0.7
fold induction at 3 µM [1, 7]: 1.1
fold induction at 0.1 µM [1, 8]: 0.5
fold induction at 0.3 µM [1, 8]: 2.5
fold induction at 1 µM [1, 8]: 1.2
fold induction at 3 µM [1, 8]: 10.9
fold induction at 0.1 µM [1, 9]: 3.5
fold induction at 0.3 µM [1, 9]: 7.3
fold induction at 1 µM [1, 9]: 2
fold induction at 3 µM [1, 9]: 3.4
fold induction at 0.1 µM [1, 10]: 0.03
fold induction at 0.3 µM [1, 10]: 0.1
fold induction at 1 µM [1, 10]: 0.4
fold induction at 3 µM [1, 10]: 0.7
fold induction at 0.1 µM [1, 11]: 1.6
fold induction at 0.3 µM [1, 11]: 1.3
fold induction at 1 µM [1, 11]: 1
fold induction at 0.1 µM [1, 12]: 9
fold induction at 0.3 µM [1, 12]: 8.5
fold induction at 1 µM [1, 12]: 2.9
fold induction at 3 µM [1, 12]: 1.9
fold induction at 0.1 µM [1, 13]: 0.5
fold induction at 0.3 µM [1, 13]: 0.6
fold induction at 1 µM [1, 13]: 0.8
fold induction at 3 µM [1, 13]: 2
fold induction at 0.1 µM [1, 14]: 3.5
fold induction at 0.3 µM [1, 14]: 2.1
fold induction at 1 µM [1, 14]: 1.1
fold induction at 3 µM [1, 14]: 3.4
fold induction at 0.1 µM [1, 15]: 1
fold induction at 0.3 µM [1, 15]: 1.1
fold induction at 1 µM [1, 15]: 0.7
fold induction at 3 µM [1, 15]: 3.4
Cmax total ([2]; Supplementary Table 1): 0.12 to 3.8 µM
Cmax total ([2]; Table 1): 0.12 to 3.80 µM
